For 11 molecules, MIC, IC50 and solubility results are on record in ChEMBL document CHEMBL2390858, “Design, synthesis and anti-tuberculosis activity of 1-adamantyl-3-heteroaryl ureas with improved in vitro pharmacokinetic properties” (Bioorg Med Chem, 2013).

Molecules are shown by their SMILES. ≈ marks a conversion by molar mass, not a printed value.

For orientation: IC50 means the concentration needed to halve the response being measured. One may read the solubility as how much of the substance goes into solution per volume. Higher therefore signals a readily soluble substance.

The test system of one series is Acinetobacter. The series is described as follows: microbe, parasite or virus in culture.
Another series concerns Burkholderia cepacia. Briefly: microbe, parasite or virus in culture.
The subject of series [1] is Staphylococcus aureus. The series is described as follows: microbe, parasite or virus in culture. As to conditions: NRS70.
For the next series, the system named is Vero. Briefly: cells. The note with it: Chlorocebus sabaeus, 72 h.
Another series deals with Bacillus anthracis. Briefly: microbe, parasite or virus in culture. As to conditions: Sterne.
The next series deals with Pseudomonas aeruginosa. The series is described as follows: microbe, parasite or virus in culture.
The test system of a further series is Streptococcus pyogenes. Briefly: microbe, parasite or virus in culture.
Series [2] deals with Staphylococcus aureus. The series is described as follows: microbe, parasite or virus in culture. The note with it: ATCC 29213.
The subject of another series is Bacillus subtilis. Briefly: microbe, parasite or virus in culture.
The test system of another series is Proteus vulgaris. Briefly: microbe, parasite or virus in culture.
Another series deals with Streptococcus pneumoniae. Briefly: microbe, parasite or virus in culture.
A further series relates to Enterococcus faecalis. The series is described as follows: microbe, parasite or virus in culture.
The test system of the next series is Klebsiella pneumoniae. Briefly: microbe, parasite or virus in culture.
Series [3] has as its target T1, Bifunctional epoxide hydrolase 2 (Homo sapiens, UniProt P34913).
T1 sequence (P34913 whole entry): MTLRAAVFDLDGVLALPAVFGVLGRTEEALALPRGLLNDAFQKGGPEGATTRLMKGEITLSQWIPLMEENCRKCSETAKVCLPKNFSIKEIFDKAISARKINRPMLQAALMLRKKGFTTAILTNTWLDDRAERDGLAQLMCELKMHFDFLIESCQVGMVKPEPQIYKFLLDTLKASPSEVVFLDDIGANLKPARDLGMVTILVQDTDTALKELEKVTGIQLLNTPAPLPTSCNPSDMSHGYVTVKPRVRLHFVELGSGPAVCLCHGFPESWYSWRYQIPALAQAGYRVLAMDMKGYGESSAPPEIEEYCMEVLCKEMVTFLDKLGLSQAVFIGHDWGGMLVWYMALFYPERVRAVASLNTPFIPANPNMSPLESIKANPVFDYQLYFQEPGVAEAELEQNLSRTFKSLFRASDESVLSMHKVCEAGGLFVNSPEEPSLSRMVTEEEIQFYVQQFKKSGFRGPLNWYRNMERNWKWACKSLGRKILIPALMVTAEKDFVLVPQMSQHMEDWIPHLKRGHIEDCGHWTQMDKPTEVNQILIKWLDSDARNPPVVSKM

Series [4] concerns Mycobacterium tuberculosis. The series is described as follows: microbe, parasite or virus in culture. The note with it: H37Rv, 168 h.
A further series relates to Escherichia coli. Briefly: microbe, parasite or virus in culture. The note with it: K-12.
In the next series the test system is Proteus mirabilis. The series is described as follows: microbe, parasite or virus in culture.
For series [5] the following is noted: buffer, 18 h, pH 7.4.

As for `O=C(Nc1nc2ccccc2s1)NC12CC3CC(CC(C3)C1)C2`, the MIC against Acinetobacter was more than 200 µg/mL; against Burkholderia cepacia, more than 200 µg/mL; against Staphylococcus aureus [1], more than 200 µg/mL; in the series with Bacillus anthracis, 200 µg/mL (≈ 611 µM); with Pseudomonas aeruginosa, more than 200 µg/mL; with Streptococcus pyogenes it was more than 200 µg/mL. Further, the MIC in the series on Staphylococcus aureus [2] was more than 200 µg/mL; in the series with Bacillus subtilis, 200 µg/mL (≈ 611 µM); against Proteus vulgaris it was more than 200 µg/mL; with Streptococcus pneumoniae, more than 200 µg/mL; with Enterococcus faecalis, more than 200 µg/mL; in the series with Klebsiella pneumoniae, more than 200 µg/mL. In addition, the MIC was 0.78 µg/mL (≈ 2.38 µM) in series [4], more than 200 µg/mL in the series on Escherichia coli and more than 200 µg/mL against Proteus mirabilis. For the same molecule, the IC50 in the series on Vero is 17 µg/mL (≈ 51.9 µM); in series [3] it was 3 nM.
Regarding `CCCn1nc(NC(=O)NC23CC4CC(CC(C4)C2)C3)cc1C`, the MIC with Acinetobacter, in the series with Burkholderia cepacia, against Staphylococcus aureus [1], in the series with Bacillus anthracis, in the series with Pseudomonas aeruginosa and against Streptococcus pyogenes was more than 200 µg/mL in each case. The MIC with Staphylococcus aureus [2], in the series on Bacillus subtilis, in the series with Proteus vulgaris, in the series on Streptococcus pneumoniae, against Enterococcus faecalis and in the series with Klebsiella pneumoniae was more than 200 µg/mL each time. Also, the MIC is 1.56 µg/mL (≈ 4.93 µM) in series [4], more than 200 µg/mL against Escherichia coli and more than 200 µg/mL in the series with Proteus mirabilis. Besides, the IC50 with Vero came out at 26 µg/mL (≈ 82.2 µM); in series [3] it was 751 nM.
For the molecule `Cc1csc(NC(=O)NC2C3CC4CC(C3)CC2C4)n1` (configuration not stated), the MIC against Acinetobacter was more than 200 µg/mL; in the series with Burkholderia cepacia, more than 200 µg/mL; in the series with Staphylococcus aureus [1], 100 µg/mL (≈ 343 µM); in the series with Bacillus anthracis, more than 200 µg/mL; in the series with Pseudomonas aeruginosa it was more than 200 µg/mL; against Streptococcus pyogenes, 200 µg/mL (≈ 686 µM). Moreover, the MIC is 200 µg/mL (≈ 686 µM) with Staphylococcus aureus [2]; more than 200 µg/mL in the series with Bacillus subtilis; more than 200 µg/mL in the series on Proteus vulgaris; 100 µg/mL (≈ 343 µM) with Streptococcus pneumoniae; more than 200 µg/mL in the series with Enterococcus faecalis; more than 200 µg/mL against Klebsiella pneumoniae. For the same molecule, the MIC in series [4] was 1.56 µg/mL (≈ 5.35 µM); with Escherichia coli it was more than 200 µg/mL; in the series on Proteus mirabilis, more than 200 µg/mL. Besides, the IC50 in the series on Vero worked out at 60 µg/mL (≈ 206 µM); in [3], 710 nM.
As to `O=C(Nc1nnc(C2CC2)o1)NC1C2CC3CC(C2)CC1C3` (configuration not stated), the MIC was more than 200 µg/mL against Acinetobacter; 200 µg/mL (≈ 661 µM) against Burkholderia cepacia; more than 200 µg/mL in the series with Staphylococcus aureus [1]; more than 200 µg/mL in the series on Bacillus anthracis; more than 200 µg/mL with Pseudomonas aeruginosa; more than 200 µg/mL against Streptococcus pyogenes. Further, the MIC in the series with Staphylococcus aureus [2] is 200 µg/mL (≈ 661 µM); with Bacillus subtilis, more than 200 µg/mL; in the series with Proteus vulgaris, more than 200 µg/mL; against Streptococcus pneumoniae it was more than 200 µg/mL; against Enterococcus faecalis, more than 200 µg/mL; against Klebsiella pneumoniae it was more than 200 µg/mL. In addition, the MIC in series [4] is 3.13 µg/mL (≈ 10.4 µM); in the series on Escherichia coli, more than 200 µg/mL; in the series on Proteus mirabilis, more than 200 µg/mL. Moreover, the IC50 in the series on Vero was 180 µg/mL (≈ 595 µM); in series [3] it was 2410 nM.
Regarding `CCn1nc(NC(=O)NC2C3CC4CC(C3)CC2C4)cc1C` (configuration not stated), the MIC in the series on Acinetobacter, with Burkholderia cepacia, against Staphylococcus aureus [1], with Bacillus anthracis, against Pseudomonas aeruginosa and in the series on Streptococcus pyogenes was more than 200 µg/mL throughout. The MIC against Staphylococcus aureus [2] was 100 µg/mL (≈ 331 µM); with Bacillus subtilis it was more than 200 µg/mL; with Proteus vulgaris it was more than 200 µg/mL; with Streptococcus pneumoniae it was more than 200 µg/mL; in the series with Enterococcus faecalis it was more than 200 µg/mL; against Klebsiella pneumoniae, more than 200 µg/mL. In addition, the MIC in [4] is 3.13 µg/mL (≈ 10.3 µM); with Escherichia coli, more than 200 µg/mL; against Proteus mirabilis, more than 200 µg/mL. The figures for the concentration for half-maximal inhibition (IC50) (with Vero; in series [3]) were 163 µg/mL (≈ 539 µM) and 2460 nM, respectively.
`COc1ccc(NS(=O)(=O)c2ccc(NC(=O)NC34CC5CC(CC(C5)C3)C4)cc2)nn1`: the MIC in the series with Acinetobacter is more than 200 µg/mL; against Burkholderia cepacia, 200 µg/mL (≈ 437 µM); against Staphylococcus aureus [1], 100 µg/mL (≈ 219 µM); with Bacillus anthracis, 50 µg/mL (≈ 109 µM); against Pseudomonas aeruginosa, more than 200 µg/mL; against Streptococcus pyogenes, more than 200 µg/mL. Moreover, the MIC against Staphylococcus aureus [2] is 200 µg/mL (≈ 437 µM); with Bacillus subtilis, 200 µg/mL (≈ 437 µM); against Proteus vulgaris, 200 µg/mL (≈ 437 µM); in the series with Streptococcus pneumoniae, 100 µg/mL (≈ 219 µM); against Enterococcus faecalis, 200 µg/mL (≈ 437 µM); with Klebsiella pneumoniae, more than 200 µg/mL. The MIC in series [4] was 25 µg/mL (≈ 54.6 µM); in the series with Escherichia coli, 200 µg/mL (≈ 437 µM); with Proteus mirabilis, 100 µg/mL (≈ 219 µM). In series [5], this molecule yielded a solubility of 14.1 µg/mL (≈ 30.8 µM). In series [3], this molecule had a 50% inhibitory concentration (IC50) of 7 nM.
On to `Cc1cc(NS(=O)(=O)c2ccc(NC(=O)NC34CC5CC(CC(C5)C3)C4)cc2)no1`, for which the MIC is more than 200 µg/mL against Acinetobacter; more than 200 µg/mL in the series on Burkholderia cepacia; 50 µg/mL (≈ 116 µM) against Staphylococcus aureus [1]; more than 200 µg/mL against Bacillus anthracis; more than 200 µg/mL in the series on Pseudomonas aeruginosa; more than 200 µg/mL against Streptococcus pyogenes. The MIC in the series on Staphylococcus aureus [2], against Bacillus subtilis, with Proteus vulgaris, in the series with Streptococcus pneumoniae, in the series on Enterococcus faecalis and against Klebsiella pneumoniae was more than 200 µg/mL throughout. Also, the MIC in series [4] is 25 µg/mL (≈ 58.1 µM); against Escherichia coli, more than 200 µg/mL; against Proteus mirabilis it was more than 200 µg/mL. The same molecule displayed a solubility in series [5] of 2 µg/mL (≈ 4.65 µM). The molecule further displayed an IC50 in series [3] of 292 nM.
As to `Cc1nc(NS(=O)(=O)c2ccc(NC(=O)NC34CC5CC(CC(C5)C3)C4)cc2)oc1C`, the MIC against Acinetobacter, in the series on Burkholderia cepacia, against Staphylococcus aureus [1], against Bacillus anthracis, in the series on Pseudomonas aeruginosa and in the series with Streptococcus pyogenes was more than 200 µg/mL throughout. The MIC with Staphylococcus aureus [2], in the series on Bacillus subtilis, in the series with Proteus vulgaris, with Streptococcus pneumoniae, in the series with Enterococcus faecalis and against Klebsiella pneumoniae was more than 200 µg/mL throughout. Further, the MIC was more than 25 µg/mL in series [4], more than 200 µg/mL in the series on Escherichia coli and more than 200 µg/mL in the series on Proteus mirabilis. The same molecule registered a solubility in series [5] of 27.1 µg/mL (≈ 61 µM). Also, in [3], the IC50 came to 13 nM.
Turning to `Cc1ccnc(NS(=O)(=O)c2ccc(NC(=O)NC34CC5CC(CC(C5)C3)C4)cc2)n1`, the MIC was 100 µg/mL (≈ 226 µM) against Acinetobacter; more than 200 µg/mL with Burkholderia cepacia; more than 200 µg/mL in the series with Staphylococcus aureus [1]; 100 µg/mL (≈ 226 µM) in the series with Bacillus anthracis; more than 200 µg/mL in the series on Pseudomonas aeruginosa; more than 200 µg/mL with Streptococcus pyogenes. In addition, the MIC with Staphylococcus aureus [2], against Bacillus subtilis, with Proteus vulgaris, in the series on Streptococcus pneumoniae, against Enterococcus faecalis and with Klebsiella pneumoniae was more than 200 µg/mL throughout. The MIC in series [4] was more than 25 µg/mL; against Escherichia coli, more than 200 µg/mL; with Proteus mirabilis it was more than 200 µg/mL. Moreover, in series [5], the solubility came out at 2.5 µg/mL (≈ 5.66 µM). In series [3], this molecule registered an IC50 of 17 nM.
For the molecule `Cc1noc(NS(=O)(=O)c2ccc(NC(=O)NC34CC5CC(CC(C5)C3)C4)cc2)c1C`, the MIC against Acinetobacter, with Burkholderia cepacia, in the series on Staphylococcus aureus [1], with Bacillus anthracis, in the series on Pseudomonas aeruginosa and against Streptococcus pyogenes was more than 200 µg/mL throughout. The MIC against Staphylococcus aureus [2], in the series on Bacillus subtilis, in the series on Proteus vulgaris, in the series on Streptococcus pneumoniae, against Enterococcus faecalis and in the series on Klebsiella pneumoniae was more than 200 µg/mL in each case. Further, the MIC in series [4] was 25 µg/mL (≈ 56.2 µM); against Escherichia coli it was more than 200 µg/mL; in the series with Proteus mirabilis it was more than 200 µg/mL. The solubility in [5] came to 27.3 µg/mL (≈ 61.4 µM). The molecule further had an IC50 in [3] of 31 nM.
As to `O=C(Nc1ccncc1)NC12CC3CC(CC(C3)C1)C2`, the MIC in the series on Acinetobacter, against Burkholderia cepacia, against Staphylococcus aureus [1], in the series with Bacillus anthracis, against Pseudomonas aeruginosa and against Streptococcus pyogenes was more than 200 µg/mL each time. The MIC in the series on Staphylococcus aureus [2], in the series on Bacillus subtilis, against Proteus vulgaris, in the series on Streptococcus pneumoniae, against Enterococcus faecalis and with Klebsiella pneumoniae was more than 200 µg/mL throughout. In addition, the MIC in series [4] was 18 µg/mL (≈ 66.3 µM); against Escherichia coli, more than 200 µg/mL; against Proteus mirabilis it was more than 200 µg/mL. For the same molecule, the solubility in [5] came to 7 µg/mL (≈ 25.8 µM). In addition, the midpoint of inhibition in series [3], the IC50, lay at 174 nM.
